System: cultured rat pituitary cells
Assay: Stimulation of secretion of ACTH and β-endorphin by cultured rat pituitary cells (procedure of Endocrinology, 91, 562 (1972))
Format: cell-based
Settings: compared against synthetic oCRF, read-out: Half-maximal responses
From the text: This synthetic peptide is examined for its effects on the secretion of ACTH and β-endorphin in vitro and also in vivo.

EC50: ~0.25 nM
Structure (SMILES): CC[C@H](C)[C@H](NC(=O)[C@H](CC(=O)O)NC(=O)[C@H](CC(C)C)NC(=O)[C@H](CC(C)C)NC(=O)[C@H](CCCCN)NC(=O)[C@H](CCCNC(=N)N)NC(=O)[C@H](CC(N)=O)NC(=O)[C@H](CO)NC(=O)[C@H](Cc1c[nH]cn1)NC(=O)[C@H](C)NC(=O)[C@H](CCC(N)=O)NC(=O)[C@H](CCC(N)=O)NC(=O)[C@H](C)NC(=O)[C@H](CC(C)C)NC(=O)[C@H](CCC(N)=O)NC(=O)[C@H](CC(=O)O)NC(=O)[C@H](C)NC(=O)[C@H](CCCCN)NC(=O)[C@@H](NC(=O)[C@H](CCSC)NC(=O)[C@H](CCC(=O)O)NC(=O)[C@H](CC(C)C)NC(=O)[C@@H](NC(=O)[C@H](CCC(=O)O)NC(=O)[C@H](CCCNC(=N)N)NC(=O)[C@H](CC(C)C)NC(=O)[C@H](CC(C)C)NC(=O)[C@H](Cc1c[nH]cn1)NC(=O)[C@H](Cc1ccccc1)NC(=O)[C@@H](NC(=O)[C@H](CC(C)C)NC(=O)[C@H](CC(=O)O)NC(=O)[C@H](CC(C)C)NC(=O)[C@H](CO)NC(=O)[C@@H](NC(=O)[C@@H]1CCCN1C(=O)[C@@H]1CCCN1C(=O)[C@H](CCC(=O)O)NC(=O)[C@H](CCC(N)=O)NC(=O)[C@@H](N)CO)[C@@H](C)CC)[C@@H](C)O)C(C)C)[C@@H](C)O)C(=O)N[C@@H](C)C(N)=O [oCRF]

From EP0521963B1, “CRF ANALOGS” (THE SALK INSTITUTE FOR BIOLOGICAL STUDIES, priority 1990, dated 1998)
